Target: T1, LEH-P (thermostable limonene epoxide hydrolase) (Rhodococcus erythropolis, UniProt Q9ZAG3, T2A/S15P/A19K/E45K/T76K/T85V/N92K/Y96F, form not given)
T1 construct: gene limA; N-terminal hexa-His tag; expressed in E. coli; dimeric
Experiment: initial velocities of diol formation, Michaelis-Menten fit
Format: biochemical
Conditions: buffer and temperature of kinetics not given (activity assays: 50 mM HEPES pH 8, 30 °C); variant SS16 from earlier study, mutations not given; read-out: K M [mM] ^[b]
Source text: initial velocities of diol formation, Michaelis-Menten fit on LEH-P (thermostable limonene epoxide hydrolase)

T1 sequence (Q9ZAG3 whole entry T2A/S15P/A19K/E45K/T76K/T85V/N92K/Y96F, form open): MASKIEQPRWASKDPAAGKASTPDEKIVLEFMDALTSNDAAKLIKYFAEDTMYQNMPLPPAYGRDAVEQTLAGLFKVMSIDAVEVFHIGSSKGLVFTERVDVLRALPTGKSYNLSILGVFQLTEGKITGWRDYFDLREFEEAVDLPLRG

`C1CC2OC2C1` (stereo not shown) [1 a, cyclopentene oxide] gave a Km of 54 ± 4 mM.

Reference: paper PMC7383614, “Computational Design of Enantiocomplementary Epoxide Hydrolases for Asymmetric Synthesis of Aliphatic and Aromatic Diols” (Chembiochem, 2020)
